Measured values published in ChEMBL document CHEMBL6103595, “Synthesis and evaluation of piceatannol derivatives as novel arginase inhibitors with radical scavenging activity and their potential for collagen reduction in dermal fibroblasts” (Eur J Med Chem, 2025).
Values belong to the molecule of their own block, whether it stands above or below them. Active and inactive are the calls of the source. No cut-off for these calls is given here.

Key:
Arginase-1 [1] = target: T1, Arginase-1 (Bos taurus, UniProt Q2KJ64); experiment: Inhibition of bovine Arg-1 using L-ARG as substrate incubated for 60 mins by OPA colorimetric analysis
T1 sequence (Q2KJ64 whole entry): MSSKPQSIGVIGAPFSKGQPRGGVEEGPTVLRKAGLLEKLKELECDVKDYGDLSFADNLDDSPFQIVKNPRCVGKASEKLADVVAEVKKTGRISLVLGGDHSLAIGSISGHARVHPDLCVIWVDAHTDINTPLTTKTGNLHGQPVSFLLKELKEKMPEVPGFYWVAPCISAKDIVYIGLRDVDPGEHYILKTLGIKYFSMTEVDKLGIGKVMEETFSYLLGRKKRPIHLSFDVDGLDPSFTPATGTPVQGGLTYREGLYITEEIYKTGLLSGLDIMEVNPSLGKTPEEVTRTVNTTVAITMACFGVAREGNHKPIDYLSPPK

[2] = Antioxidant activity assessed as DPPH radical scavenging activity incubated for 30 mins under dark condition by absorbance based analysis; type: functional
Arginase-1 [3] = target: T2, Arginase-1 (Homo sapiens, UniProt P05089); experiment: Inhibition of recombinant human Arg-1 using L-ARG as substrate incubated for 60 mins by OPA colorimetric analysis
T2 sequence (P05089 whole entry): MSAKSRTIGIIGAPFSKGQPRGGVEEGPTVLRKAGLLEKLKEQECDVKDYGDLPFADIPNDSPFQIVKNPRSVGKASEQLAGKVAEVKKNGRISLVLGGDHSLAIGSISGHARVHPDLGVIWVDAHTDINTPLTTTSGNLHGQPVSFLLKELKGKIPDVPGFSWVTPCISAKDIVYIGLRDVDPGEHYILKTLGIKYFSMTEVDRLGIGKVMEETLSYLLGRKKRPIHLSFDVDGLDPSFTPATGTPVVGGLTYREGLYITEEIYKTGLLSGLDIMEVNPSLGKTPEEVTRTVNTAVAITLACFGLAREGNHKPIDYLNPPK

[4] = Antioxidant activity assessed as ABTS radical scavenging activity incubated for 12 hrs under dark condition by absorbance based plate reader analysis; type: functional
[5] = Cytotoxicity against human Red-COLA1 cells assessed as cell viability at 5 uM incubated for 24 hrs by MTT assay relative to control; type: functional; details: read-out: Activity
[6] = Stability of the compound in aqueous solution at 20 mM measured at <= 2 hrs relative to control; type: physicochemical; details: read-out: Stability
[7] = Antifibrotic activity against TGF-beta induced human Red-COLA1 cells assessed as reduction in collagen deposition rate at 5 uM measured after 7 days by sirius red staining based microplate reader analysis (reference value: 130.6%); type: functional; set-up: scale not given: the % may be the effect or the level left; details: time 7 day
Arginase-1 (Bos taurus) = target: T3, Arginase-1 (Bos taurus) (UniProt Q2KJ64); experiment: Potency index, ratio of piceatannol IC50 to test compound IC50 for inhibition of bovine Arg-1 using L-ARG as substrate
T3 sequence (whole entry): T1 sequence (Q2KJ64 whole entry)

[8] = (§1) Antifibrotic activity against TGF-beta induced human Red-COLA1 cells assessed as reduction in procollagen type-1 synthesis at 5 uM incubated for 48 hrs by ELISA (reference value: 130.6 ng/ml); type: functional
[9] = Cytotoxicity against human Red-COLA1 cells assessed as cell viability at 10 uM incubated for 24 hrs by MTT assay relative to control; type: functional; details: read-out: Activity
Red-COLA1 [10] = experiment: Antifibrotic activity against TGF-beta induced human Red-COLA1 cells assessed as reduction in procollagen type-1 synthesis at 10 uM incubated for 48 hrs by ELISA (reference value: 130.6 ng/ml); type: functional, cell-based
[11] = Antifibrotic activity against TGF-beta induced human Red-COLA1 cells assessed as reduction in collagen deposition rate at 10 uM measured after 7 days by sirius red staining based microplate reader analysis (reference value: 130.6%); type: functional; set-up: scale not given: the % may be the effect or the level left; details: time 7 day
[12] = Stability of the compound in aqueous solution at 20 mM measured after 4 hrs; type: physicochemical; details: buffer, 20000 µM
Red-COLA1 [13] = experiment: as §1; type: functional

Structure (SMILES): O=C(Nc1ccc(O)cc1)c1ccc(O)c(O)c1
IC50 (Arginase-1 [1]): 2600 µM

Structure (SMILES): O=C(c1ccc(O)c(O)c1)N(CCO)c1ccc(O)c(O)c1
IC50 (Arginase-1 [1]): 228 µM

Structure (SMILES): O=C(Nc1ccc(O)c(O)c1)c1cccc(O)c1O
IC50 (Arginase-1 [1]): 69 µM

Structure (SMILES): O=C(c1ccc(O)c(O)c1)N(CCCCCO)c1ccc(O)c(O)c1
IC50 (Arginase-1 [1]): 137 µM

Structure (SMILES): O=C(Nc1cccc(O)c1)c1ccc(O)c(O)c1
IC50 (Arginase-1 [1]): 770 µM

Structure (SMILES): O=C(c1ccc(O)c(O)c1)N(CCCO)c1ccc(O)c(O)c1
IC50 (Arginase-1 [1]): 148 µM

Structure (SMILES): Oc1cc(O)cc(/C=C/c2ccc(O)c(O)c2)c1 [PICEATANNOL]
EC50 [2]: 37 µM
viability at 10 µM [9]: 100%
IC50 (Arginase-1 [1]): 20 µM
Activity (Red-COLA1 [10]): inactive
remaining at 2 h, 20000 µM [6]: 70%
IC50 (Arginase-1 [3]): 28 µM
EC50 [4]: 13 µM
Activity [11]: 113.5%

Structure (SMILES): O=C(Nc1ccc(O)c(O)c1)c1cc(O)cc(O)c1
EC50 [2]: 23 µM
IC50 (Arginase-1 [1]): 34 µM
EC50 [4]: 5 µM

Structure (SMILES): O=C(Nc1ccccc1)c1ccc(O)c(O)c1
IC50 (Arginase-1 [1]): 1000 µM

Structure (SMILES): CN(C(=O)c1ccc(O)c(O)c1)c1ccc(O)c(O)c1
IC50 (Arginase-1 [1]): 222 µM

Structure (SMILES): Oc1cc(O)cc(NC(=S)c2ccc(O)c(O)c2)c1
IC50 (Arginase-1 [1]): 66 µM

Structure (SMILES): O=S(=O)(Nc1ccc(O)c(O)c1)c1ccc(O)c(O)c1
IC50 (Arginase-1 [1]): 130 µM
Ratio IC50 (Arginase-1 (Bos taurus)): 6

Structure (SMILES): Oc1ccc(NC(=S)c2ccccc2)cc1O
IC50 (Arginase-1 [1]): 63 µM

Structure (SMILES): Oc1ccc(C(=S)Nc2ccccc2)cc1O
IC50 (Arginase-1 [1]): 124 µM

Structure (SMILES): Nc1cccc(NC(=S)c2ccc(O)c(O)c2)c1
IC50 (Arginase-1 [1]): 116 µM

Structure (SMILES): O=S(=O)(Nc1ccc(O)c(O)c1)c1cccc(O)c1
IC50 (Arginase-1 [1]): 325 µM

Structure (SMILES): Oc1ccc(/N=C(/Nc2ccc(O)c(O)c2)c2ccc(O)c(O)c2)cc1O
IC50 (Arginase-1 [1]): 171 µM

Structure (SMILES): Cc1c(C)c2c(c(C)c1O)CCC(C)(C(=O)O)O2 (stereo not given) [TROLOX]
EC50 [2]: 29 µM
EC50 [4]: 24 µM

Structure (SMILES): O=C(Nc1cc(O)cc(O)c1)c1ccc(O)c(O)c1
IC50 (Arginase-1 [1]): 202 µM

Structure (SMILES): O=C(Nc1ccc(O)c(O)c1)c1cc(O)c(O)c(O)c1
IC50 (Arginase-1 [1]): 65 µM

Structure (SMILES): Oc1cccc(NC(=S)c2ccc(O)c(O)c2)c1
IC50 (Arginase-1 [1]): 41 µM

Structure (SMILES): Oc1ccc(NC(=S)c2ccc(O)c(O)c2)cc1
IC50 (Arginase-1 [1]): 95 µM

Structure (SMILES): O=c1c(O)c(-c2ccc(O)c(O)c2)oc2cc(O)cc(O)c12 [QUERCETIN]
EC50 [2]: 16 µM
EC50 [4]: 10 µM

Structure (SMILES): Oc1ccc(/C=C/c2ccccc2)cc1O [(E)-3,4-STILBENDIOL]
IC50 (Arginase-1 [1]): 97 µM

Structure (SMILES): Oc1cc(O)cc(C(=S)Nc2ccc(O)c(O)c2)c1
EC50 [2]: 17 µM
viability at 5 µM [5]: 100%
IC50 (Arginase-1 [1]): 20 µM
Stability [12]: Stable
IC50 (Arginase-1 [3]): 32 µM
EC50 [4]: 12 µM
Activity [7]: 133.1%
Activity (Red-COLA1 [13]): inactive

Further lines, with some results ahead:

IC50 (Arginase-1 [1]): 170 µM
Structure (SMILES): Nc1ccc(NC(=O)c2ccc(O)c(O)c2)cc1

IC50 (Arginase-1 [1]): 440 µM
Structure (SMILES): Nc1cccc(NC(=O)c2ccc(O)c(O)c2)c1

EC50 [2]: 10 µM
IC50 (Arginase-1 [1]): 16 µM
IC50 (Arginase-1 [3]): 28 µM
EC50 [4]: 12 µM
Structure (SMILES): Oc1cccc(C(=S)Nc2ccc(O)c(O)c2)c1

EC50 [2]: 9 µM
IC50 (Arginase-1 [1]): 9 µM
remaining at 2 h, 20000 µM [6]: 70%
IC50 (Arginase-1 [3]): 55 µM
EC50 [4]: 12 µM
Ratio IC50 (Arginase-1 (Bos taurus)): 2
Structure (SMILES): Oc1ccc(NC(=S)c2ccc(O)c(O)c2)cc1O
viability at 5 µM [5]: 92.8%
Activity [7]: 100.8%
Activity [8]: 87.5 ng/mL

IC50 (Arginase-1 [1]): 59 µM
Structure (SMILES): Oc1ccc(O)c(/C=C/c2ccc(O)c(O)c2)c1

IC50 (Arginase-1 [1]): 17 µM
IC50 (Arginase-1 [3]): 9 µM
Structure (SMILES): N[C@@H](CSCCB(O)O)C(=O)O
viability at 10 µM [9]: 96.7%
Activity (Red-COLA1 [10]): inactive
Activity [11]: 130.6%

IC50 (Arginase-1 [1]): 88 µM
Structure (SMILES): O=C(c1ccc(O)c(O)c1)N(CCCCO)c1ccc(O)c(O)c1

IC50 (Arginase-1 [1]): > 500 µM
Structure (SMILES): O=S(=O)(Nc1ccc(O)c(O)c1)c1cc(O)ccc1O

EC50 [2]: 12 µM
IC50 (Arginase-1 [1]): 20 µM
EC50 [4]: 12 µM
Structure (SMILES): O=C(Nc1ccc(O)c(O)c1)c1ccc(O)c(O)c1

EC50 [2]: 14 µM
IC50 (Arginase-1 [1]): 13 µM
IC50 (Arginase-1 [3]): 38 µM
EC50 [4]: 10 µM
Structure (SMILES): Oc1ccc(C(=S)Nc2ccc(O)c(O)c2)cc1

IC50 (Arginase-1 [1]): 161 µM
Structure (SMILES): Nc1cccc(C(=S)Nc2ccc(O)c(O)c2)c1

EC50 [2]: 16 µM
IC50 (Arginase-1 [1]): 115 µM
EC50 [4]: 12 µM
Structure (SMILES): O/N=C(/Nc1ccc(O)c(O)c1)c1ccc(O)c(O)c1

IC50 (Arginase-1 [1]): 3100 µM
Structure (SMILES): O=C(Nc1ccccc1O)c1ccc(O)c(O)c1

IC50 (Arginase-1 [1]): 69 µM
Structure (SMILES): Oc1ccc(/C=C/c2ccc(O)c(O)c2)cc1O
